{"source": "ChEMBL document CHEMBL3526076", "about": "“Species-dependent and receptor-selective action of bilobalide on the function of constitutive androstane receptor and pregnane X receptor” (Drug Metab Dispos, 2012)", "key": {"[1]": {"molecular_target": "T1, Nuclear receptor subfamily 1 group I member 2 (Homo sapiens, UniProt O75469)", "T1 sequence (O75469 whole entry)": "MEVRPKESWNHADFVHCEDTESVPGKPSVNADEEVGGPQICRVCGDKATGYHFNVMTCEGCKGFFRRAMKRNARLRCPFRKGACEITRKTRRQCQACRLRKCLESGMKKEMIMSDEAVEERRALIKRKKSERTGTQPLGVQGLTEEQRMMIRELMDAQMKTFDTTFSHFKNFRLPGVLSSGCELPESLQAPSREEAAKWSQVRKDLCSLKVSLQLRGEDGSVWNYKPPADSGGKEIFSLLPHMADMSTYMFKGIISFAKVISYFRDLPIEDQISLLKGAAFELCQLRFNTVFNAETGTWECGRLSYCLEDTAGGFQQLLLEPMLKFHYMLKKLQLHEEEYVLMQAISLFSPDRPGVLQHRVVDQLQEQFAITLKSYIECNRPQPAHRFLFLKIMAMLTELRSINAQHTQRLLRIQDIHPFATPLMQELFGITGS", "experiment": "Activation of PXR in human Hu1108 hepatocytes assessed as effect on CYP3A-mediated testosterone 6beta-hydroxylation at 10 to 50 uM after 24 hrs by HPLC analysis", "type": "ADME, cell-based, Hepatocyte"}, "[2]": {"molecular_target": "T2, Nuclear receptor subfamily 1 group I member 2 (Rattus norvegicus, UniProt Q9R1A7)", "T2 sequence (Q9R1A7 whole entry)": "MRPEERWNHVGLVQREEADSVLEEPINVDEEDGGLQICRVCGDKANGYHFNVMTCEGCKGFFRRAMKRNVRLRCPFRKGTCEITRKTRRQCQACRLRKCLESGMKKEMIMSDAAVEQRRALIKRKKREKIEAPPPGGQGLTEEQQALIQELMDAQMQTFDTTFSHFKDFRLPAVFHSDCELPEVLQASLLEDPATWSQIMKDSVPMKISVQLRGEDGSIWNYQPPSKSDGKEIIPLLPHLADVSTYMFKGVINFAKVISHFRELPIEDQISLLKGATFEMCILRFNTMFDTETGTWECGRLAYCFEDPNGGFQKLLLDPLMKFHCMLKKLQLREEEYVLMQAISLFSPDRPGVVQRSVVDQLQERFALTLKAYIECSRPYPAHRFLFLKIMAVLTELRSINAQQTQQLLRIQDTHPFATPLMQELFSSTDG", "experiment": "Activation of rat PXR expressed in rat hepatocytes coexpressing CYP3A4 at 100 uM after 24 hrs by dual luciferase reporter gene assay", "type": "ADME, cell-based, Hepatocyte"}, "[3]": {"molecular_target": "T3, Nuclear receptor subfamily 1 group I member 3 (Rattus norvegicus, UniProt Q9QUS1)", "T3 sequence (Q9QUS1 whole entry)": "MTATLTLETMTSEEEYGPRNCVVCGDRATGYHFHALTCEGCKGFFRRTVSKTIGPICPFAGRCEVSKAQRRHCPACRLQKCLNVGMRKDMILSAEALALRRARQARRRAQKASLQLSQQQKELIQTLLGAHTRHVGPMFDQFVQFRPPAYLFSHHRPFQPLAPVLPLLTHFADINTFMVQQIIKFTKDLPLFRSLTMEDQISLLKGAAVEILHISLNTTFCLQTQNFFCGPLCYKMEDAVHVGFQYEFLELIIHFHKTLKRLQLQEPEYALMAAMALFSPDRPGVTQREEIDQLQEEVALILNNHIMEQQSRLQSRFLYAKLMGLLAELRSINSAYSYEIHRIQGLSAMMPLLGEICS", "experiment": "Activation of CAR in rat hepatocytes assessed as upregulation of CYP2B1 mRNA expression at 10 uM after 24 hrs by RT-PCR analysis relative to phenobarbital", "type": "ADME, cell-based, Hepatocyte"}, "[4]": {"molecular_target": "T3, Nuclear receptor subfamily 1 group I member 3", "experiment": "Activation of rat CAR expressed in rat hepatocytes coexpressing CYP2B1 at 0.1 to 10 uM after 24 hrs by dual luciferase reporter gene assay", "type": "ADME, cell-based, Hepatocyte"}, "CAR mRNA [5]": {"test_system": "CAR mRNA", "experiment": "Effect on CAR mRNA expression in human hepatocytes at 10 uM by RT-PCR analysis relative to control", "type": "ADME, cell-based, Hepatocyte", "conditions": "read-out: FC; call rule not given here"}, "CAR mRNA [6]": {"test_system": "CAR mRNA", "experiment": "Effect on CAR mRNA expression in human hepatocytes at 25 uM by RT-PCR analysis relative to control", "type": "ADME, cell-based, Hepatocyte", "conditions": "read-out: FC"}, "[7]": {"molecular_target": "T1, Nuclear receptor subfamily 1 group I member 2", "experiment": "Activation of PXR in human Hu1043 hepatocytes assessed as effect on CYP3A-mediated testosterone 6beta-hydroxylation at 10 to 60 uM after 24 hrs by HPLC analysis", "type": "ADME, cell-based, Hepatocyte"}, "CAR mRNA [8]": {"test_system": "CAR mRNA", "experiment": "Effect on CAR mRNA expression in rat hepatocytes at 30 uM by RT-PCR analysis relative to control", "type": "ADME, cell-based, Hepatocyte", "conditions": "read-out: FC"}, "[9]": {"molecular_target": "T3, Nuclear receptor subfamily 1 group I member 3", "experiment": "Activation of rat CAR expressed in rat hepatocytes coexpressing CYP2B1 at 100 uM after 24 hrs by dual luciferase reporter gene assay relative to phenobarbital", "type": "ADME, cell-based, Hepatocyte"}, "[10]": {"molecular_target": "T2, Nuclear receptor subfamily 1 group I member 2", "experiment": "Activation of PXR in rat hepatocytes assessed as upregulation of CYP3A23 mRNA expression at 1 to 30 uM after 24 hrs by RT-PCR analysis", "type": "ADME, cell-based, Hepatocyte"}, "PXR mRNA [11]": {"test_system": "PXR mRNA", "experiment": "Effect on PXR mRNA expression in human hepatocytes at 10 uM by RT-PCR analysis relative to control", "type": "ADME, cell-based, Hepatocyte", "conditions": "read-out: FC"}, "[12]": {"molecular_target": "T2, Nuclear receptor subfamily 1 group I member 2", "experiment": "Activation of PXR in rat hepatocytes assessed as effect on CYP3A-mediated testosterone 6beta-hydroxylation at 1 to 30 uM after 24 hrs by HPLC analysis", "type": "ADME, cell-based, Hepatocyte"}, "PXR mRNA [13]": {"test_system": "PXR mRNA", "experiment": "Effect on PXR mRNA expression in rat hepatocytes at 30 uM by RT-PCR analysis relative to control", "type": "ADME, cell-based, Hepatocyte", "conditions": "read-out: FC"}, "[14]": {"molecular_target": "T1, Nuclear receptor subfamily 1 group I member 2", "experiment": "Antagonist activity at human PXR expressed in human HepG2 cells coexpressing CYP3A4 assessed as inhibition of rifampicin-induced receptor activation up to 100 uM after 24 hrs by dual luciferase reporter gene assay", "type": "ADME, cell-based", "conditions": "hepg2, 24 h"}, "[15]": {"molecular_target": "T4, Nuclear receptor subfamily 1 group I member 3 (Homo sapiens, UniProt Q14994)", "T4 sequence (Q14994 whole entry)": "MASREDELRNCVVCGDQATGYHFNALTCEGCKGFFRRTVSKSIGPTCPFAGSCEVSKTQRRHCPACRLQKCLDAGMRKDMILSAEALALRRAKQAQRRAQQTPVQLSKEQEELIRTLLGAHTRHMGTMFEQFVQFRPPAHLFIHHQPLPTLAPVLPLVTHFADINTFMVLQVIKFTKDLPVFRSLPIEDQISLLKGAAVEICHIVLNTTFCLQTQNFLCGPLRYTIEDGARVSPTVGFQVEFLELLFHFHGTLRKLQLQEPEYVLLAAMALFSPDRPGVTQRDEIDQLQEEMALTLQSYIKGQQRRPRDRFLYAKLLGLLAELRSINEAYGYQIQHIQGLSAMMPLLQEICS", "experiment": "Activation of human CAR expressed in human HepG2 cells coexpressing CYP2B6 at 0.1 to 100 uM after 24 hrs by dual luciferase reporter gene assay", "type": "ADME, cell-based", "conditions": "hepg2, 24 h"}, "PXR mRNA [16]": {"test_system": "PXR mRNA", "experiment": "Effect on PXR mRNA expression in human hepatocytes at 50 uM by RT-PCR analysis relative to control", "type": "ADME, cell-based, Hepatocyte", "conditions": "read-out: FC"}, "HepG2": {"test_system": "HepG2", "experiment": "Cytotoxicity against human HepG2 cells at 1 to 100 uM after 24 hrs by lactate dehydrogenase assay", "type": "cell-based", "conditions": "hepg2, 24 h"}, "[17]": {"molecular_target": "T3, Nuclear receptor subfamily 1 group I member 3", "experiment": "Activation of CAR in rat hepatocytes assessed as increase in CYP2B-mediated benzyloxyresorufin O-dealkylation at 10 uM after 24 hrs by spectrofluorometric analysis relative to phenobarbital", "type": "ADME, cell-based, Hepatocyte"}, "Hepatocyte": {"test_system": "Hepatocyte", "experiment": "Cytotoxicity against rat hepatocytes at 1 to 100 uM after 24 hrs by lactate dehydrogenase assay", "type": "cell-based"}, "[18]": {"molecular_target": "T3, Nuclear receptor subfamily 1 group I member 3", "experiment": "Activation of rat CAR expressed in rat hepatocytes coexpressing CYP2B1 at 30 uM after 24 hrs by dual luciferase reporter gene assay relative to phenobarbital", "type": "ADME, cell-based, Hepatocyte"}}, "data": [{"compound": "CC(C)(C)[C@]1(O)C[C@@H]2OC(=O)C[C@@]23C(=O)O[C@@H]2OC(=O)[C@H](O)[C@]213", "values": [{"measurement": "Activity", "setting": "[1]", "value": "Not Active"}, {"measurement": "Activity", "setting": "[2]", "value": "Not Active"}, {"measurement": "Activity", "setting": "[3]", "value": 18, "unit": "%"}, {"measurement": "Activity", "setting": "[4]", "value": "Not Active"}, {"measurement": "fold induction at 10 µM", "setting": "CAR mRNA [5]", "value": 1.4}, {"measurement": "fold induction at 25 µM", "setting": "CAR mRNA [6]", "value": 1.4}, {"measurement": "Activity", "setting": "[7]", "value": "Not Active"}, {"measurement": "fold induction at 30 µM", "setting": "CAR mRNA [8]", "value": 1}, {"measurement": "Activity", "setting": "[9]", "value": 115, "unit": "%"}, {"measurement": "Activity", "setting": "[10]", "value": "Not Active"}, {"measurement": "fold induction at 10 µM", "setting": "PXR mRNA [11]", "value": 0.7}, {"measurement": "Activity", "setting": "[12]", "value": "Not Active"}, {"measurement": "fold induction at 30 µM", "setting": "PXR mRNA [13]", "value": 0.8}, {"measurement": "inhibition (INH)", "setting": "[14]", "value": "Not Active"}, {"measurement": "Activity", "setting": "[15]", "value": "Not Active"}, {"measurement": "fold induction at 50 µM", "setting": "PXR mRNA [16]", "value": 0.4}, {"measurement": "Activity", "setting": "HepG2", "value": "Non-toxic"}, {"measurement": "Activity", "setting": "[17]", "value": 64, "unit": "%"}, {"measurement": "Activity", "setting": "Hepatocyte", "value": "Non-toxic"}, {"measurement": "Activity", "setting": "[18]", "value": 189, "unit": "%"}]}]}
